Test results from patent US11185812B2, “Regenerative recovery of sulfur dioxide from effluent gases” (MECS, INC., priority 2010, dated 2021).
Read-outs that look alike come from different tables or passages of the source.

What was measured:
[1] = Equilibrium loading data for metal salts, batch absorber experiments; format: physicochemical; conditions: atmospheric pressure; for SO2, ppm: equilibrium SO2 concentration; for Loading Capacity (fraction): equilibrium, aqueous absorption solution
Description: The following experiments were conducted in a batch absorber wherein a sulfur dioxide-containing gas was fed via a sparger below the liquid level in a vessel containing an aqueous absorption solution comprising various polyprotic carboxylic acid salts and the composition of the exhaust gas was monitored.
The sulfur dioxide-containing inlet gas 101 to be treated comprised nitrogen saturated with water vapor and a controlled concentration of sulfur dioxide. Temperatures (T) and pressure (P) were monitored during the experiment and gas samples (S) were taken at different times during the experiment. T1 and P1 are temperature and pressure sensors of inlet gas 101. S1 is a sampling point for inlet gas 101. T2 is a temperature sensor of the liquid in the vessel. T3 is a temperature sensor of exhaust gas 102.
In these experiments and other experiments reported in the Examples below, the gas concentrations were measured by gas chromatography and liquid concentrations were calculated by material balance.
All experiments were performed at atmospheric pressure. These experiments approach equilibrium concentrations and, in some cases, equilibrium data (denoted Eq. in the legend) are also included in the graphed results. For the equilibrium data, the compositions of the gas and liquid were diluted with excess caustic to maintain the sulfur dioxide in solution.
Total sulfur content was determined using ASTM Standard D1552, “Standard Test Method for Sulfur in Petroleum Products (High-Temperature Method”, DOI: 10.1520/D1552-08, available from ASTM International, West Conshohocken, Pa., www.astm.org.

[2] = cited from earlier work

Row | Structure (SMILES) | SO2, ppm ([1]; 50 °C) [ppm] | SO2, ppm ([1]; 100 °C) [ppm] | Loading Capacity (fraction) ([1]; 50 °C) | Loading Capacity (fraction) ([1]; 100 °C) | pKa1 ([2]; 25° C.) | pKa2 ([2]; 25° C.) | pKa1 ([2]; temperature not given)
1 | O=C([O-])CC(O)(CC(=O)[O-])C(=O)[O-].[K+].[K+].[K+] [K Cit, potassium citrate] | 105.94 | 1162.54 | 0.2754 | 0.2668 |  |  | 
2 | O=C([O-])CC(O)C(=O)[O-].[Na+].[Na+] (stereo not shown) [Na Mal, sodium malate] | 406.6 | 2169.06 | 0.1694 | 0.1416 |  |  | 
3 | O=C(O)CCCC(=O)O [L-Glutaric Acid] |  |  |  |  | 4.31 | 5.41 | 
4 | CC(=O)CCC(=O)O [Levulinic Acid] |  |  |  |  | 4.59 |  | 
5 | O=C([O-])CCC(=O)[O-].[Na+].[Na+] [Na Suc, sodium succinate] | 137.54 | 1387.3 | 0.1045 | 0.2053 |  |  | 
6 | O=C(O)c1ccccc1C(=O)O [o-Phthalic Acid] |  |  |  |  | 2.89 | 5.51 | 
7 | O=C([O-])c1ccccc1C(=O)[O-].[Na+].[Na+] [Na Pha, sodium phthalate] | 1115.92 | 11303.83 | 0.6530 | 0.7250 |  |  | 
8 | O=C(O)c1cccnc1 [Nicotinic acid] |  |  |  |  |  |  | 4.75
